Reference: patent US4940730A, “Angiogenesis enhancer” (Takeda Chemical Industries, Ltd., priority 1987, dated 1990)

Experiments:
[1] = tested on: hen's chlorioallantoic membrane; test: CAM (Chorio Allantoic Membrane) assay; assay type: in vivo; conditions: for ED50: amount of drug which gave the numerical value 5 (positive rate) in CAM assay; for Positive rate of CAM assay: average neovascularization score (++=10, +=7, °=3, -=0), 3 days on membrane
Experimental: CAM (Chorio Allantoic Membrane) assay was conducted on various compounds of the present invention. The technique of the CAM assay was that modified somewhat on Auerbach's method [Developmental Biology, 41, 391 (1974)]. More specifically, hen's fertile eggs were incubated for three days at 37° C. (Napco carbon dioxide incubator-6300 was employed, CO2 :0% H2 O saturated). Polypropylene-made discs (6 mm. diameter) were spotted with a chloroform:ethanol (1:4 by volume) solution of each compound so that the concentration may be 0, 0.25, 0.64, 1.6, 4, 10 and 25 ug, respectively. The test materials were air-dried in a clean bench, which were then placed quietly on hen's chlorioallantoic membrane, followed by incubation at 37° C. for further three days. Then, the vascularization state was observed. In the tables, the positive rates were calculated on the following basis. Namely, degrees of neovascularization were determined as ++ for very strong, + for strong, ° for weak and - for negative, and they were numerized as 10, 7, 3 and 0, respectively. The average numerical value in each of the concentrations of the respective samples was made as positive rate. Further, the amount of the drug which gave the numerical value 5 in each sample was shown as ED50 value (ug/disc).

cornea = test: Rat cornea test; assay type: in vivo, Wister rats; conditions: after two weeks; for elongation of blood vessels: rat cornea
Description: Namely, Wister rats (14-week old, male) were anesthetized, then pockets (about 2×3 mm in size) were provided in the cornea. […] The test samples enveloped were erucamide, lauramide and erucic acid, and, as the control, Elvax®-40 in which nothing was enveloped was used.

dorsal air-sack = test: Mouse dorsal air-sack method; assay type: in vivo, ICR mice; design: key to blood vessel elongation action: +, ++; blood vessel elongation action positive; +, ++; blood vessel elongation action positive; -: blood vessel elongation action negative; conditions: ten days later; for blood vessel elongation action: 1 mg test sample enveloped in Elvax-40
Experimental: Experimental work was conducted in accordance with the method of Yoshii et al. [Igaku no ayumi, 122 (No. 10), p. 890 (1982)]. More specifically, ICR mice (9-week old, males) were anesthetized, and the hair at the dorsal site was shaved with clippers. The site was sterilized with alcohol, and an injection needle was inserted at the site located at a distance of 1 cm from the tail side. Through the needle, about 20 ml of air was introduced. Then, the air in the air-sack (on the tail side) was drawn out. Test samples enveloped in Elvax®-40 were inserted into both, left and right, sides (at one of the both sides, only Elvax®-40 as the control). The incised site was closed, and, ten days later, the site was incised again and the state of elongation of blood vessel was observed. The test samples enveloped were erucamide, lauramide and erucic acid, and the results compared with one another.

[2] = amount of sample 0.64 μg per disc
[3] = amount of sample 1.6 μg per disc
[4] = amount of sample 10 μg per disc
[5] = amount of sample 25 μg per disc
[6] = 30 μg test material in Elvax-40 gel in corneal pocket

Structure (SMILES)	ED50 [1]	Positive rate of CAM assay [1, 2]	Positive rate of CAM assay [1, 3]	Positive rate of CAM assay ([1]; amount of sample 4 μg per disc)	Positive rate of CAM assay [1, 4]	Positive rate of CAM assay [1, 5]	Action of elongation of blood vessel (cornea; [6])	elongation of blood vessels (cornea)	blood vessel elongation action (dorsal air-sack)	blood vessel elongation (dorsal air-sack; mouse dorsal air-sack)	Action of elongation of blood vessel (cornea; 60 μg test material in Elvax-40 gel in corneal pocket)
CCCCCCCC/C=C\CCCCCCCCCCCC(N)=O [Erucamide]	2.13 ug/disc	1.4	3.4	9.4	10	10	++	strong elongation action	++	strong action of blood vessel elongation	
CCCCCCCC/C=C\CCCCCCCCCCCC(=O)O [Erucic acid]	4.69 ug/disc	1.4	2.8	4	8.2	9.4	++	strong elongation action			
CCCCCCCCCCCC(N)=O [Lauramide, reference compound]		0.3	0.7	0	0	0.3			-		-
CCCCCCCCCCCCCC(=O)O [Myristic acid]	25.0 ug/disc	0	0	0.8	4	5					
CCCCCCCC/C=C\CCCCCCCCCCCC(=O)N(CCO)CCO [N, N-di-diethanol]	2.42 ug/disc	1.0	2.3	8.0	10	10					
CCCCCCCC/C=C\CCCCCCCCCCCC(=O)N(C)C [N,N-dimethyl]	5.41 ug/disc	0	1.5	3.3	8.5	9.3					
CCCCCCCC/C=C\CCCCCCCCCCCC(=O)NC [N-methyl, N-methyl erucamide]	2.90 ug/disc	0.8	2.3	7.8	10	10					
CCCCCCCC/C=C\CCCCCCCCCCCCCC(=O)O [Nervonic acid]	2.75 ug/disc	1.8	2.5	7.8	9.3	8.5					
CCCCCCCC/C=C\CCCCCCCC(N)=O [Oleamide]	16.7 ug/disc	0	0.6	0	7.8	6.8					
CCCCCCCC/C=C\CCCCCCCC(=O)O [Oleic acid]	13.7 ug/disc	0	0.8	2.5	4	7					
CCCCCCCCCCCCCCCC(N)=O [Palmitamide]	15.6 ug/disc	0	0	0.3	2.4	7.7					
CCCCCCCCCCCCCCCC(=O)O [Palmitic acid]	14.5 ug/disc	0	0	0	3.2	7.6					
CCCCCC[C@@H](O)C/C=C\CCCCCCCC(=O)O [Ricinoleic acid]		0	1.8	1.2	2.6	3.2					
CCCCCCCCCCCCCCCCCC(N)=O [Stearamide]	2.63 ug/disc	0	2	7.6	7.7	6.9					
CCCCCCCCCCCCCCCCCC(=O)O [Stearic acid]	7.14 ug/disc	0	0	1.8	6.8	9.4					
CCCCCCCC/C=C\CCCCCCCCCCCC(=O)NCC(=O)O [carboxymethyl amine]	6.58 ug/disc	0	0	2.6	7.0	10					
CCCCCCCC/C=C\CCCCCCCCCCCC(=O)Nc1cccc(C(=O)O)c1 [m-aminobenzoic acid, N-ercoyl-3-aminobenzoic acid]	1.28 ug/disc	2.0	6.0	7.4	10	10					
CCCCCCCC/C=C\CCCCCCCCCCCC(=O)N1CCC[C@H]1C(=O)OC [proline methylester, N-erucoyl-proline methyl ester]	4.00 ug/disc	0.8	2.3	5.0	7.8	10					
